The record followed here is patent US4562205A, “Derivatives of 2-aminoacetic acid” (Continental Pharma Inc., priority 1983, dated 1985).

Read-outs that look alike come from different tables or passages of the source.

For series [1], the system named is convulsions induced by bicuculline in mice. Briefly: Anti-convulsant activity against bicuculline-induced convulsions (protection against tonic extension). It is filed as in vivo, mice (CDl-Charles River). The conditions noted are these: for potency compared with reference (in words): ED50 comparison, bicuculline test; for ED50: Mus musculus, 3 h, read-out: ED50 (dose providing protection against tonic extension of 50% of the animals); for % of protection (against tonic extension): 10 mg/kg, 20 mice. The protocol:
The compounds tested, 2-pentanoylaminoacetic acid (compound I), sodium 2-pentanoylaminoacetate (compound II) or sodium valproate (a generally accepted reference substance), have been administered orally to 20 mice (CDl-Charles River) at a dose of 10 mg/kg as a suspension in a 1% tragacanth gum mucilage. Administration has been done by means of an intragastric tube.
Three hours later, bicuculline has been administered at a dose of 0,7 mg/kg by intravenous injection in the lateral vein of the tail.
The anti-convulsant activity of the compounds has been further evaluated, using the technique described hereinabove, by examining the effect at different doses. From the experimental data, the ED50 value has been calculated, i.e. the effective dose (mg/kg) providing protection against tonic extension of 50% of the animals.

Series [2] concerns mice. Briefly: in vivo. The following applies: oral, mice. An excerpt:
(§1) In further pharmacological tests the acute toxicity and the effect on behaviour have been examined. The effect on behaviour has been studied using a method derived from the one of S. Irvin [Gordon Res. Conf. on Medicinal Chemistry, p. 1933 (1959) as cited by R. A. Turner (Screening Methods in Pharmacology, Acad. Press, 1965, Chapter III, pages 22-34)].
(§2) No further testing has been made when a dose has been reached at which no abnormal behaviour or toxicity has been observed. […] The deaths were registered for 14 days following the treatment.

The nature of series [3]: in vivo. The following applies: mouse, in vivo, po.
Description: as §1, §2

Series [4] deals with mice. Briefly: in vivo. The following applies: mice; for deaths: 3000 mg/kg per os.
Description: as §1, §2
(§3) The LD50 value, i.e. the dose expressed in mg/kg which is lethal for 50% of the animals, has been calculated according to the Litchfield and Wilcoxon method [J. Pharmacol. Exp. Ther., 96, 99 (1949)].

Series [5] can be described thus: in vivo. The following applies: mouse, in vivo, po.
Description: as §1, §2, §3
The source holds these as a separate data set.

Where [6] appears, read: oral, different doses, bicuculline 0,7 mg/kg i.v. three hours later, mice.
[7] abbreviates: oral, bicuculline 0,7 mg/kg i.v. three hours later.

Take `CCCCC(=O)NCC(=O)O` [compound I, 2-pentanoylaminoacetic acid]: the “potency compared with reference (in words)” value in series [1] (mice) is “more potent”. The ED50 in series [1] (setting [6]) stood at 10.7 mg/kg. In addition, the “anti-convulsant activity (in words)” value in series [1] (convulsions induced by bicuculline in mice) was “potent anti-convulsant activity”. For the same molecule, the “% of protection (against tonic extension)” value (“% of protection” below) in series [1] (setting [7]) came out at 55%. Besides, the “toxicity and effect on behaviour (in words)” value in the series on mice [2] was “very weak”. This molecule also returned an MTD at 336 h in the series “in vivo [3]” of at least 3000 mg/kg. Also, the selectivity ratio in “in vivo [3]” (TI-B (MTD/ED50), therapeutical index, mice) was over 280. Besides, the deaths result in the series with mice [4] was “no deaths”. This molecule also had an LD50 at 336 h in the series “in vivo [5]” of over 3000 mg/kg.
With `CCCC(CCC)C(=O)[O-].[Na+]` [sodium valproate, reference compound], the ED50 in series [1] (setting [6]) was 29 mg/kg. Besides, the “% of protection” value in series [1] (setting [7]) came out at 40%.
In the case of `CCCCC(=O)NCC(=O)[O-].[Na+]`, the “potency compared with reference (in words)” value in series [1] (mice) was “more potent”. In addition, the ED50 in series [1] (po) was found to be 9.2 mg/kg. Moreover, in series [1] (setting [7]), the “% of protection” value is 55%. Besides, the “toxicity and effect on behaviour (in words)” value with mice [2] is given as “very weak”. In addition, the “TI-B (MTD/ED50)” value with mice [2] (therapeutical index) is over 326. Moreover, the MTD at 336 h in “in vivo [3]” is at least 3000 mg/kg. The deaths entry in the series with mice [4] is reported as “no deaths”. The “TI-A (LD50/ED50)” value in the series with mice [4] (therapeutical index, oral) is over 326. The same molecule displayed a median lethal dose (LD50) at 336 h in the series “in vivo [5]” of over 3000 mg/kg.
